Measurements published in US8840886B2, “Method of treating cancer with DLL4 antagonist and chemotherapeutic agent” (Regeneron Pharmaceuticals, Inc., priority 2009, dated 2014).

Tests used:
Format in all cases: in vivo, mouse
human HCT116 tumor cells = test: HCT116 xenograft tumor growth, REGN421 with irinotecan (Example 6)
Procedure: Each mouse was implanted subcutaneously (sc) with 5×10^6 human HCT116 tumor cells. After the tumors were established in the mice (tumor size of ˜150 mm^3, 15 days after implantation), tumors were measured and randomized. The mice were then treated with hFc, REGN421, irinotecan or combination of REGN421 and irinotecan. A total of 30 mice were divided into 6 groups (n=5 per cohort). The first group was treated sc with hFc at 2 mg/kg; the second group was treated sc with REGN421 at 2 mg/kg; the third and fourth groups were treated ip with irinotecan at 7.5 and 25 mg/kg, respectively; the fifth group was treated sc with REGN421 at 2 mg/kg and ip with irinotecan at 7.5 mg/kg; and the sixth group was treated sc with REGN421 at 2 mg/kg and ip with irinotecan at 25 mg/kg. REGN421 was administered every 3-4 days starting on day 15 and mice received three doses total. Irinotecan was administered every 3-4 days starting on day 15 and mice received three doses total.
(§1) To assess the effects of REGN421 and irinotecan as single agents or in combination treatments, the changes in tumor size (volume) are measured, starting three days before the initial REGN421 treatment, and then on the day of each agent treatment (days 15, 19, 22) and thereafter every 3-4 days until tumors reach ˜600 mm^3 in size. In vivo tumor size is calculated using the formula (length×width^2)/2.

[1] = system: rat C6 tumor cells (glioblastoma cells); test: C6 glioblastoma tumor growth in SCID mice, REGN577 with docetaxel (Example 3)
Procedure: The effect of anti-Dll4 antibody in combination with docetaxel (TAXOTERE®) on tumor growth was evaluated on tumors implanted in Severe Combined Immunodeficiency (SCID) mice. Each mouse was implanted subcutaneously (sc) with 1×10^6 rat C6 tumor cells (glioblastoma cells). After the tumors were established (tumor size of ˜100-150 mm^3, approximately 13 days after implantation), the mice were treated with hFc, docetaxel, Dll4 antibody, or a combination of docetaxel plus Dll4 antibody. Since these mice expressed mouse Dll4, the Dll4 Ab used in this experiment was prepared in-house, based on the published sequence (WO 2007/143689), and designated as REGN 577. […] A total of 30 tumor-bearing male mice were randomized into six groups (N=5). […] Starting from the day of initial treatment, body weight and tumors were measured twice a week until the mice were euthanized when tumors reached ˜600 mm^3 in size. Tumor size was calculated using the formula, (length×width^2)/2.

[2] = system: human MDA-MB-231 breast tumor cells; test: MDA-MB-231 breast tumor growth in SCID mice, REGN577 with docetaxel (Example 4); details: for reduction of tumor growth: at Day 63
Procedure: The effect of anti-Dll4 antibody in combination with docetaxel (TAXOTERE®, sanofi-aventis) on tumor growth was evaluated on tumors implanted in Severe Combined Immunodeficiency (SCID) mice. Each mouse was implanted ‘pseudo-orthotopically’ (subcutaneously into mammary gland #3) with 5×10^6 human MDA-MB-231 breast tumor cells with MATRIGEL™ (BD Biosciences lot #84540). After the tumors were established in the mice (tumor size of ˜150-200 mm^3, approximately 45 days after implantation), mice were treated with hFc, docetaxel, Dll4 antibody, or a combination of docetaxel plus Dll4 antibody. A total of 25 tumor-bearing […] mice were randomized into five groups (N=5 mice per group). The first group was treated subcutaneously with hFc (at 25 mg/kg) and intravenously (iv) with vehicle; the second group was treated with Dll4 antibody REGN577 sc at 5 mg/kg; the third group was treated with docetaxel iv at 4.5 mg/kg; the fourth group was treated with docetaxel iv at 6 mg/kg; the fifth group was treated with docetaxel iv at 6 mg/kg plus REGN577 sc at 5 mg/kg. Docetaxel and/or Dll4 antibody were administered on the same day. Animals were treated 2 times per week and received a total of 3 doses. Starting from the day of initial treatment, body weight and tumors were measured twice a week until the mice are euthanized. Mice were euthanized when tumors reached ˜600 mm^3 in size. Tumor size was calculated using the formula (length×width^2)/2.

[3] = system: human HCT116 tumor cells (CRC); test: HCT116 colorectal xenograft tumor growth, REGN421 with 5-FU (Example 5)
Procedure: The effect of anti-Dll4 Ab (REGN421) in combination with 5-FU on tumor growth was evaluated on tumors implanted in humanized Dll4 SCID mice. Each mouse was implanted subcutaneously (sc) with 5×10^6 human HCT116 tumor cells (CRC). After the tumors were established in the mice (tumor size of ˜150 mm^3, 22 days after implantation), tumors were measured and randomized. The mice were then treated with hFc, REGN421, 5-FU or combination of REGN421 and 5-FU. A total of 30 mice were divided into 6 groups (n=5 per cohort). The first group was treated sc with hFc at 2 mg/kg; the second group was treated sc with REGN421 at 2 mg/kg; the third and fourth groups were treated ip with 5-FU at 15 and 25 mg/kg, respectively; the fifth group was treated sc with REGN421 at 2 mg/kg and ip with 5-FU at 15 mg/kg; and the sixth group was treated sc with REGN421 at 2 mg/kg and ip with 5-FU at 25 mg/kg. REGN421 was administered every 3-4 days starting on day 22 and mice received three doses total. 5-FU was administered every 3-4 days starting on day 22 and mice received three doses total.
as §1, with “5-FU” for “irinotecan”, “combination,” for “combination treatments,”, “were” for “are”, “beginning” for “starting”, “22, 26, 29)” for “15, 19, 22)”, “(length×width^2)/2 (FIG. 3 and Table 5).” for “(length×width^2)/2.”

[4] = system: human VM-Cub1 tumor cells (bladder carcinoma cells); test: VM-Cub1 bladder carcinoma xenograft tumor growth, REGN421 with cisplatin (Example 1); details: for TGI: 4 doses, at day 32; for Euthanized: control cohort euthanized day 32; for TGD: time to 600 mm^3 vs control
Procedure: The effect of anti-Dll4 antibody (REGN421) in combination with cisplatin (platinol, cis-diamminedichloroplatinum) on tumor growth was evaluated on tumors implanted in Severe Combined Immunodeficiency (SCID) mice expressing a humanized Dll4 protein (humanized Dll4 SCID mice). The humanized Dll4 SCID mouse was made by replacing the entire extracellular domain of the mouse Dll4 gene with the corresponding extracellular region of the human Dll4 gene (7 kb) in embryonic stem (ES) cells. Homozygous hDll4 mice were generated and bred into SCID background.
Each mouse was implanted subcutaneously (sc) with 1×10^6 human VM-Cub1 tumor cells (bladder carcinoma cells) plus MATRIGEL™ (BD Biosciences, #354234). After the tumors were established in the mice (tumor size of 150-200 mm^3, approximately 14 days after implantation), tumors were measured, randomized and treated with hFc, REGN421, cisplatin, or combination of REGN421 and cisplatin. A total of 45 mice were divided into nine groups (n=5 per cohort). The first group was treated subcutaneously (sc) with hFc at 2 mg/kg; the second and third groups were treated sc with REGN421 at 0.5 and 2 mg/kg, respectively; the fourth and fifth groups were treated intraperitoneally (ip) with cisplatin at 0.5 and 2 mg/kg, respectively; the sixth group was treated sc with REGN421 at 0.5 mg/kg and ip with cisplatin at 0.5 mg/kg; the seventh group was treated sc with REGN421 at 0.5 mg/kg and ip with cisplatin at 2 mg/kg; the eighth group was treated sc with REGN421 at 2 mg/kg and ip with cisplatin at 0.5 mg/kg; and the ninth group was treated sc with REGN421 at 2 mg/kg and ip with cisplatin at 2 mg/kg. REGN421 was administered every 3-4 days starting on day 14 and mice received three doses total. Cisplatin was administered every 24 hours starting on day 14; mice received four doses total.
To assess the effects of REGN421 and cisplatin as single agents or in combination treatments, the changes in tumor size were recorded. Tumor growth was measured three days before the initial REGN421 treatment, on the day of each REGN421 treatment (days 14, 17 and 21) and thereafter every 3-4 days until tumors reached ˜600 mm^3 in size. In vivo tumor size was calculated using the formula (length×width^2)/2 (FIG. 1 and Table 1).
Tumor Growth Inhibition, TGI, was determined by calculating the difference in tumor size for treated (T) versus vehicle control (C) tumor at the day the control cohort was euthanized (i.e., at day 32); TGI=[1−(Tfinal−Tinitial)/(Cfinal−Cinitial)]×100.
Tumor growth delay, TGD, was assessed as the difference in days between treated (T) versus control (C) tumors when each cohort reached a specified tumor size. The predetermined tumor size for this experiment was 600 mm^3.

[5] = system: human A549 tumor cells (non-small cell lung cancer); test: A549 NSCLC xenograft tumor growth, REGN421 with cisplatin (Example 2)
Procedure: The effect of REGN421 in combination with cisplatin on tumor growth was evaluated on tumors implanted in humanized Dll4 SCID mice, as described above. Each mouse was implanted subcutaneously (sc) with 5×10^6 human A549 tumor cells (non-small cell lung cancer or “NSCLC”). After the tumors were established in the mice (tumor size of 100-150 mm^3, approximately 29 days after implantation), tumors were measured, randomized and treated with hFc, REGN421, cisplatin or combination of REGN421 and cisplatin. A total of 36 mice were divided into 6 groups (n=6 per cohort). The first group was treated sc with hFc at 2 mg/kg; the second group was treated sc with REGN421 at 2 mg/kg; the third and fourth groups were treated ip with cisplatin at 2.5 and 4.5 mg/kg, respectively; the fifth group was treated sc with REGN421 at 2 mg/kg and ip with cisplatin at 2.5 mg/kg; and the sixth group was treated sc with REGN421 at 2 mg/kg and ip with cisplatin at 4.5 mg/kg. REGN421 was administered every 3-4 days starting on day 29 and mice received three doses total. Cisplatin was administered every 24 hours starting on day 29 and mice received two doses total.
To assess the effects of REGN421 and cisplatin as single agents or in combination we measured tumor size (volume), beginning three days before the initial REGN421 treatment, on the day of each agent treatment (days 29, 30, 33, 36) and thereafter every 3-4 days until tumors reached ˜600 mm^3 in size. In vivo tumor size was calculated using the formula (length×width^2)/2.

[6] = docetaxel 4.5 mg/kg iv (13.5 mg/kg total dose)
[7] = docetaxel 6 mg/kg iv (18 mg/kg total dose)

## CCc1c2c(nc3ccc(OC(=O)N4CCC(N5CCCCC5)CC4)cc13)-c1cc3c(c(=O)n1C2)COC(=O)[C@]3(O)CC [Irinotecan, irinotecan]
Human HCT116 tumor cells; irinotecan 7.5 mg/kg ip (22.5 mg/kg total dose)
  TGD: 8 days
Human HCT116 tumor cells; irinotecan 25 mg/kg ip (75 mg/kg total dose)
  TGD: 16 days

## CC(=O)O[C@@]12CO[C@@H]1C[C@H](O)[C@@]1(C)C(=O)[C@H](O)C3=C(C)[C@@H](OC(=O)[C@H](O)[C@@H](NC(=O)OC(C)(C)C)c4ccccc4)C[C@@](O)([C@@H](OC(=O)c4ccccc4)[C@H]21)C3(C)C [Docetaxel, docetaxel]
[1]; [6]
  TGD: 6 days
[1]; [7]
  TGD: 7 days
[2]; [6]
  TGD: 4 days
[2]; docetaxel 4.5 mg/kg iv
  reduction of tumor growth: 37%
[2]; [7]
  TGD: 4 days
[2]; docetaxel 6 mg/kg iv
  reduction of tumor growth: 52%

## O=c1[nH]cc(F)c(=O)[nH]1 [5-FU, 5-fluorouracil]
[3]; 5-FU 15 mg/kg ip (45 mg/kg total dose)
  TGD: 4 days
[3]; 5-FU 25 mg/kg ip (75 mg/kg total dose)
  TGD: 2 days

## N.N.[Cl][Pt][Cl] [Cisplatin, cis-diamminedichloroplatinum]
[4]; cisplatin 0.5 mg/kg/dose ip
  TGI: 60.7%
  Euthanized: 45 days
  TGD: 13 days
[4]; cisplatin 0.5 mg/kg/dose ip, listed as cisplatin
  TGI: 61%
[4]; cisplatin 2 mg/kg/dose ip
  TGI: 53.8%
  Euthanized: 41 days
  TGD: 9 days
[4]; cisplatin 2 mg/kg/dose ip, listed as cisplatin
  TGI: 54%
[5]; cisplatin 2.5 mg/kg ip (5 mg/kg total dose)
  TGD: 4 days
[5]; cisplatin 4.5 mg/kg ip (9 mg/kg total dose)
  TGD: 11 days
